According to publication PMC6150025, “Novel Mixed-Type Inhibitors of Protein Tyrosine Phosphatase 1B. Kinetic and Computational Studies” (Molecules : A Journal of Synthetic Chemistry and Natural …, 2017):

Target: T1, PTP1B (Homo sapiens, UniProt P18031)
T1 construct: encodes for PTP1B (residues 1–321); inferred from the pET28A vector, NdeI/BamHI cloning and Ni-agarose purification) (N); made in house; host or cells: E. coli BLR
T1 sequence (P18031 1-321): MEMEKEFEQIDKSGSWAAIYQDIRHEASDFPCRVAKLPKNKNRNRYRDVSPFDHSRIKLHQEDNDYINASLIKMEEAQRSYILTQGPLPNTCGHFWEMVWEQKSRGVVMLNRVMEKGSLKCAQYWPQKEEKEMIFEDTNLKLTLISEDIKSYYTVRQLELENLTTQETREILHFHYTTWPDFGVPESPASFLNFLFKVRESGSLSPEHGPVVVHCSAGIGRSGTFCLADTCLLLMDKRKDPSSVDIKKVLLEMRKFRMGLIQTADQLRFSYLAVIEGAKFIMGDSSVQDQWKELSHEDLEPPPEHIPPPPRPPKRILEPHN
Test: PTP1B enzymatic inhibition assay (pNPP substrate)
Type: biochemical
Conditions: 200 µM compound, pNPP 50 mM, 30 min, 37 °C
Protocol: The PTP1B activity was measured based on the Goldstein method. The assay was performed with a final reaction volume of 500 µL in HEPES buffer (50 mM HEPES, 1mM DTT, 2 mM EDTA and 150 mM NaCl, pH 7.0), DMSO (10%) and p-nitrophenol phosphate (pNPP) as substrate (50 mM), the reaction was started with the PTP1B (1.5 µg/mL). After 30 min of incubation at 37 °C, the reaction was stopped by the addition of 500 µL of NaOH 5N reading the absorbance at 405 nm. The number of hydrolyzed moles of pNPP was determined using the molar extinction coefficient of the product pNP (18,500 M^−1 cm^−1).
Inhibition assays were performed under the above described conditions, adding to the reaction each one of the molecules at a final concentration of 200 µM. The concentration that inhibits 50% (IC50) of the PTP1B activity was determined through curves at different concentration of each compound, adjusting the data to the equation reported elsewhere. The inhibition type and constant were obtained by the measurement of the initial velocities of hydrolysis varying the substrate concentration in a range of 2–30 µM, in absence or presence of fixed concentrations of each inhibitor. For compound 1 the concentrations used were 3, 6, 10 and 20 µM; in the case of compound 2 were 2, 4, 6, 8, and 10 µM; and for compound 3 were 20, 50, 70 and 90 µM. The experimental data were analyzed through the Lineweaver-Burk plot using the software Sigma Plot V12.3 (Systat Software, Inc., San Jose, CA, USA).

| inhibition at 200 µM [%] | Structure (SMILES) |
| --- | --- |
| 70 | CC(=O)Nc1nc2cc(Oc3cccc(Cl)c3Cl)c(Cl)cc2n1C [Compound 9, N-[6-Chloro-5-(2,3-dichlorophenoxy)-1-methyl-1H-benzimidazol-2-yl]acetamide] |
| 80 | COc1cc2nc(SCC(=O)Nc3ccc(F)c(Cl)c3)n(-c3ccccc3)c(=O)c2cc1OC [Compound 7, N-(3-chloro-4-fluorophenyl)-2-[(6,7-dimethoxy-4-oxo-3-phenyl-3,4-dihydro-2-quinazolinyl)sulfanyl]acetamide] |

Same assay, conditions: Table S1, 200 µM compound

| Structure (SMILES) | % Inhibition (200 µM) [%] |
| --- | --- |
| CSc1nc2cc(C(=O)Nc3nc4cc(Oc5cccc(Cl)c5Cl)c(Cl)cc4[nH]3)ccc2n1C [N-[6-chloro-5-(2,3-dichlorophenoxy)-1H-benzimidazol-2-yl]-1-methyl-2-(methylsulfanyl)-1H-benzimidazole-5-carboxamide] | 42 |
| COC(=O)c1c(Cl)ccc2nc(Cc3ccc([N+](=O)[O-])cc3)sc12 [methyl 6-chloro-2-[(4-nitrophenyl)methyl]-1,3-benzothiazole-7-carboxylate] | 56 |
| CSc1nc2cc(C(=O)O)ccc2n1C [1-methyl-2-(methylsulfanyl)-1H-benzimidazole-5-carboxylic acid] | 33 |
| Cc1ccc(S(=O)(=O)CCSc2n[nH]c(=O)n2-c2ccc(OCc3ccccc3)cc2)cc1 [4-[4-(benzyloxy)phenyl]-5-({2-[(4-methylphenyl)sulfonyl]ethyl}sulfanyl)-2,4-dihydro-3H-1,2,4-triazol-3-one] | 42 |

The next lines start with the values.

| % Inhibition (200 µM) [%] | Structure (SMILES) |
| --- | --- |
| 58 | O=C(O)C=CC(=O)Nc1ccc(N2CCCCCC2)c(NC(=O)C=CC(=O)O)c1 [4-{2-(1-azepanyl)-5-[(4-hydroxy-4-oxo-2-butenoyl)amino]anilino}-4-oxo-2-butenoic acid] |
| 63 | COc1cc(C=NNC(=O)CSCc2c(C)c(C)c(C)c(C)c2C)cc(OC)c1OC [N'1-(3,4,5-trimethoxybenzylidene)-2-[(2,3,4,5,6-pentamethylbenzyl)thio]ethanohydrazide] |
| 54 | CC1C(=NO)CC(c2ccc([N+](=O)[O-])cc2)NC1c1ccc([N+](=O)[O-])cc1 (stereo not shown) [3-methyl-2,6-bis(4-nitrophenyl)tetrahydropyridin-4(1H)-one oxime] |

Test system: not given
Test: not given
Conditions: not given

| melting point [°C] | Structure (SMILES) |
| --- | --- |
| 237.5 to 238.9 | CC(=O)Nc1nc2cc(Oc3cccc(Cl)c3Cl)c(Cl)cc2n1C [Compound 9, N-[6-Chloro-5-(2,3-dichlorophenoxy)-1-methyl-1H-benzimidazol-2-yl]acetamide] |
